Assay results published in ChEMBL document CHEMBL5727383, “[1,2,3]triazolo[4,5-D]pyrimidine derivatives” (2019).

Molecular target: Cannabinoid receptor 2 (Homo sapiens, UniProt P34972)
Assay: Radioligand Binding Assay: The affinity of the compounds of the invention for cannabinoid receptors was determined using recommended amounts of membrane preparations (PerkinElmer) of human embryonic kidney (HEK) cells expressing the human CNR1 or CNR2 receptors in conjunction with 1.5 or 2.6 nM [3H]-CP-55,940 (Perkin Elmer) as radioligand, respectively. Binding was performed in binding buffer (50 mM Tris, 5 mM MgCl2, 2.5 mM EDTA, and 0.5% (wt/vol) fatty acid free BSA, pH 7.4 for CB1 receptor and 50 mM Tris, 5 mM MgCl2, 2.5 mM EGTA, and 0.1% (wt/vol) fatty acid free BSA, pH 7.4 for CB2 receptor) in a total volume of 0.2 mL for 1 h at 30° C. shaking. The reaction was terminated by rapid filtration through microfiltration plates coated with 0.5% polyethylenimine (UniFilter GF/B filter plate; Packard). Bound radioactivity was analyzed for Ki using nonlinear regression analysis (Activity Base, ID Business Solution, Limited), with the Kd values for [3H]CP55,940 determined from saturation experiments.

Chain of Cannabinoid receptor 2 (P34972 whole entry): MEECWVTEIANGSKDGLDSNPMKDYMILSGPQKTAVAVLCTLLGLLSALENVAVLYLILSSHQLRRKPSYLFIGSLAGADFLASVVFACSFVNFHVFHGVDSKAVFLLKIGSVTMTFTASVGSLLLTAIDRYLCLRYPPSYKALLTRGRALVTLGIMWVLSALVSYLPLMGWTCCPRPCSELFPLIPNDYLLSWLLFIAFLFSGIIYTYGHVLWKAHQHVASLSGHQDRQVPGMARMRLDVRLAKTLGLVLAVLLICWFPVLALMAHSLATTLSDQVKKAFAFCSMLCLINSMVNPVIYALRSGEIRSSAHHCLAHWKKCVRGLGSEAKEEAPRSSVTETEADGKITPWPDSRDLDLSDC

SMILES: CC(C)(C)c1nc(N2CCC(F)(F)C2)c2nn(Cc3ccc(C4(C(F)(F)F)N=N4)cc3Cl)nc2n1
- Ki: 2340 nM
